In the NIST ThermoML archive (doi:10.1021/acs.jced.5b00367):
± gives the expanded uncertainty stated by the source.

Columns and labels:
[1] = Crystal; visual observation
[2] = mn = molality of the nth substance listed, in mol/kg; conditions: 303.15 K, 100 kPa, Liquid, Alternating current cell with electrodes
[3] = wn = mass fraction of the nth substance listed; conditions: 101 kPa, Liquid, Alternating current cell with electrodes, w1 = 0.01

CCCCCCCCCCCCCCCC[N+](C)(C)CC[N+](C)(C)CCCCCCCCCCCCCCCC.[Br-].[Br-]
Conditions | Normal melting temperature [°C]
[1] | 175.00 ± 1.1

CCCCCCCCCCCCCCCC[N+](C)(C)CC[N+](C)(C)CCCCCCCCCCCCCCCC.[Br-].[Br-] + O
[2]
Conditions | electrical conductivity [S/m]
m1 = 5e-06 | 0.00031 ± 0.00013
m1 = 1e-05 | 0.0004 ± 0.00016
m1 = 1.5e-05 | 0.00049 ± 0.0002
m1 = 2e-05 | 0.00058 ± 0.00023
m1 = 2.5e-05 | 0.00065 ± 0.00026
m1 = 3e-05 | 0.00073 ± 0.00029
m1 = 3.5e-05 | 0.0008 ± 0.00032
m1 = 4e-05 | 0.00082 ± 0.00033
m1 = 5e-05 | 0.00086 ± 0.00034
m1 = 6e-05 | 0.00088 ± 0.00035

CCCCCCCCCCCC[N+](C)(C)CC[N+](C)(C)CCCCCCCCCCCC.[Br-].[Br-] [1,2-bis(dimethyldodecylammonium)ethane dibromide]
Conditions | Normal melting temperature [°C]
[1] | 157.00 ± 1.1

CCCCCCCCCCCC[N+](C)(C)CC[N+](C)(C)CCCCCCCCCCCC.[Br-].[Br-] [1,2-bis(dimethyldodecylammonium)ethane dibromide] + O
Conditions | electrical conductivity [S/m]
[2], m1 = 0.000201 | 0.00422 ± 0.0017
[2], m1 = 0.000301 | 0.00612 ± 0.0024
[2], m1 = 0.000402 | 0.00816 ± 0.0033
[2], m1 = 0.000503 | 0.00967 ± 0.0039
[2], m1 = 0.000603 | 0.012 ± 0.0048
[2], m1 = 0.000703 | 0.0133 ± 0.0053
[2], m1 = 0.000803 | 0.0162 ± 0.0065
[2], m1 = 0.001206 | 0.0197 ± 0.0079
[2], m1 = 0.001407 | 0.0205 ± 0.0082
[2], m1 = 0.001608 | 0.0212 ± 0.0085
[2], m1 = 0.001809 | 0.022 ± 0.0088
[2], m1 = 0.00201 | 0.0226 ± 0.009
[2], m1 = 0.002211 | 0.0231 ± 0.0092
[3], 275.15 K | 0.0196 ± 0.0078
[3], 276.25 K | 0.0196 ± 0.0078
[3], 277.35 K | 0.0196 ± 0.0078
[3], 278.15 K | 0.0196 ± 0.0079
[3], 279.45 K | 0.0197 ± 0.0079
[3], 280.25 K | 0.0197 ± 0.0079
[3], 281.35 K | 0.0197 ± 0.0079
[3], 282.15 K | 0.0197 ± 0.0079
[3], 283.15 K | 0.0198 ± 0.0079
[3], 284.25 K | 0.0198 ± 0.0079
[3], 285.15 K | 0.0198 ± 0.0079
[3], 285.65 K | 0.0198 ± 0.0079
[3], 286.15 K | 0.0199 ± 0.008
[3], 288.15 K | 0.0202 ± 0.0081
[3], 289.15 K | 0.0203 ± 0.0081
[3], 290.15 K | 0.0204 ± 0.0082
[3], 291.15 K | 0.0205 ± 0.0082
[3], 292.15 K | 0.0206 ± 0.0083
[3], 293.15 K | 0.021 ± 0.0084
[3], 295.75 K | 0.0212 ± 0.0085
[3], 298.15 K | 0.0215 ± 0.0086
[3], 299.65 K | 0.0218 ± 0.0087
[3], 301.65 K | 0.022 ± 0.0088
[3], 303.45 K | 0.0222 ± 0.0089
[3], 305.75 K | 0.0225 ± 0.009
[3], 308.15 K | 0.0228 ± 0.0091
[3], 310.25 K | 0.0229 ± 0.0092
[3], 311.15 K | 0.023 ± 0.0092
[3], 313.15 K | 0.0232 ± 0.0093
[3], 315.15 K | 0.0235 ± 0.0094
[3], 317.95 K | 0.0237 ± 0.0095
[3], 318.15 K | 0.024 ± 0.0096
[3], 320.55 K | 0.0242 ± 0.0097
[3], 323.15 K | 0.0244 ± 0.0097
[3], 325.55 K | 0.0245 ± 0.0098
[3], 327.15 K | 0.0248 ± 0.0099
[3], 329.35 K | 0.0249 ± 0.01
[3], 331.55 K | 0.025 ± 0.01
[3], 334.15 K | 0.0252 ± 0.01
[3], 335.55 K | 0.0254 ± 0.01
[3], 337.95 K | 0.0255 ± 0.01
[3], 338.35 K | 0.0258 ± 0.01
[3], 340.45 K | 0.026 ± 0.01
[3], 343.15 K | 0.0263 ± 0.011
[3], 345.15 K | 0.0265 ± 0.011
[3], 347.15 K | 0.0266 ± 0.011
[3], 349.15 K | 0.0267 ± 0.011
[3], 353.05 K | 0.027 ± 0.011

CCCCCCCCCCCCCCCC[N+](C)(C)C.[Br-] [N,N,N-trimethyl-1-hexadecanaminium bromide]
Conditions | Normal melting temperature [°C]
[1] | 247.00 ± 1.1

CCCCCCCCCC[N+](CC)(CC)CCCCCCCCCC.[Br-] [didecyldiethylammonium bromide]
Conditions | Normal melting temperature [°C]
[1] | 45.00 ± 1.1

CCCCCCCCCCCC[N+](CC)(CC)CCCCCCCCCCCC.[Br-] [didodecyldiethylammonium bromide]
Conditions | Normal melting temperature [°C]
[1] | 52.20 ± 1.1

CCCCCCCCCCCCCCCC[N+](CC)(CC)CCCCCCCCCCCCCCCC.[Br-] [diethyldihexadecylammonium bromide]
Conditions | Normal melting temperature [°C]
[1] | 73.80 ± 1.1

CCCCCCCCCCCC[N+](C)(C)C.[Br-] [dodecyltrimethylammonium bromide]
Conditions | Normal melting temperature [°C]
[1] | 265.00 ± 1.1
